The target of the assay is T1, mTLR7 (Mus musculus, UniProt P58681).
T1 construct: Splenocytes isolated from male C57/BL6 mice; from tissue; host or cells: splenocytes from the spleen of male C57BL/6 mice
T1 sequence (P58681 27-1050): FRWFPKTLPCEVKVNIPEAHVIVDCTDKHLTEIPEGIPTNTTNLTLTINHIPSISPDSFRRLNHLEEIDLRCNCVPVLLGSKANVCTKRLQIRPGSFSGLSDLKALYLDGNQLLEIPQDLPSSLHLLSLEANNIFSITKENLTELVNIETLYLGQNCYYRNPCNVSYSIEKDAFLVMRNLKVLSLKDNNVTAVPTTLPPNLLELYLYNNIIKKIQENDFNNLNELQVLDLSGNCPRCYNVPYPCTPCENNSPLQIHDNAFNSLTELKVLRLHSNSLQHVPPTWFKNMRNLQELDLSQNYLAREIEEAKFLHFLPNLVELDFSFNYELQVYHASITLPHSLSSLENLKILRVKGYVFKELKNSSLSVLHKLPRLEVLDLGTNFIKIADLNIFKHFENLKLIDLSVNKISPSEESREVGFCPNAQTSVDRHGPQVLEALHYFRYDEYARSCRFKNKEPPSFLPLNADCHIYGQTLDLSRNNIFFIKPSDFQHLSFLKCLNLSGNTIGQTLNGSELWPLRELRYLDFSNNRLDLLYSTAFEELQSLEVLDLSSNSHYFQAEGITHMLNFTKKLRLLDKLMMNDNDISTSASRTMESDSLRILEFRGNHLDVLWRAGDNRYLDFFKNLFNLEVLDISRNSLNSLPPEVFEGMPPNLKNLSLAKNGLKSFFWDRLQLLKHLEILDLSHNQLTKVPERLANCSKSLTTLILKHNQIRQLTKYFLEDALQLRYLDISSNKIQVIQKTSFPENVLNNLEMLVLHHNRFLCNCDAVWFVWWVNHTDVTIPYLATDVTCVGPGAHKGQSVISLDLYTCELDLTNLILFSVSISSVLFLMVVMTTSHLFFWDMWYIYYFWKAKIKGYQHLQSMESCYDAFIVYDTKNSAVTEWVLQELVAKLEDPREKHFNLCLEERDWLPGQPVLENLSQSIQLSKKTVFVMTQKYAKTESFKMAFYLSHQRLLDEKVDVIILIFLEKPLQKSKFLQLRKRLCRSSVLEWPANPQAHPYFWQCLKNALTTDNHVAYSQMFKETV
As to the kind of experiment: mTLR7 antagonism (IL-6 and TNF-α release assay) in mouse splenocytes, R0006/DOTAP stimulated. The assay is classed as cell-based. To be noted: 1 μM, mouse splenocytes. The text has this: mTLR9 and mTLR7 Antagonism (Cytokine Release Assay) in Mouse Splenocytes
TLR7 ligand R0006 (IDT, 5′-rU*rU*rG*rU*rU*rG*rU*rU*rG*rU*rU*rG*rU*rU*rG*rU*rU*rG*rU*rU-3′ (SEQ ID NO:1)), Liposomal transfection reagent—DOTAP (Roche, Cat. No. 11202375001), TLR9 ligand CpG ODN2006 (Sequence: T*C*G*T*C*G*T*T*T*T*G*T*C*G*T*T*T*T*G*T*C*G*T*T; *=phosphorothioate (SEQ ID NO:2)) DMSO (Sigma, D2650), RPMI Powder (Sigma, R6504), Fetal Bovine Serum (Gibco, 10270), Dulbecco's Phosphate Buffered Saline (Sigma, D1408), 96 well plate (Flat bottom, Costar 3599), ELISA kit for IL-6 (EBioscience, 88-7064-77 and TNFa (EBioscience, 88-7346-88), MACS Buffer (AutoMACS Rinsing Solution (Miltenyl Biotec, 130-091-222)+0.05% BSA), RBC lysis buffer (0.85% NH4Cl), 40 μm cell strainer (BD Falcon, 352340) Method: A. Isolation of Mouse Splenocytes
Mouse spleen was isolated from C57BL6 mouse and stored in 1× chilled PBS buffer until further processed. Spleen was transferred to a sterile petriplate and chopped in to 5-6 pieces in presence of MACS buffer (100 μl) with the help of fresh surgical blade and crushed with flat plunger of a sterile syringe. A uniform suspension was prepared by passing cells through a 40 μm cell strainer. Cells were centrifuged at 450×g for 5 minutes at 4° C., supernatant was discarded and pellet dislodged gently, resuspended in 2 ml of pre-warmed (37° C.) RBC lysis buffer at room temperature with continuous gentle mixing with 1 ml pipette. Lysis buffer was neutralized with 12 ml of chilled MACS buffer and cells were passed through 40 μm cell strainer. Cell suspension was collected in 15 ml MACS buffer and centrifuged at 450×g for 5 minutes at 4° C. Pellet was resuspended in 15 ml MACS buffer and centrifuged at 400×g for 5 minutes. Cells were resuspended in 10 ml of RPMI complete medium and viability was estimated by Trypan blue method.
mTLR7 Antagonism (IL-6 and TNF-α Release Assay):
1 mg/ml stock of R0006 was prepared in sterile, endotoxin-free water. R0006 stock was diluted 10 fold with DOTAP and incubated for 30 minutes to form liposome complex (100 μg/ml of R0006). This complex was further diluted 10 fold with incomplete RPMI media (10 μg/ml of R0006) to achieve the final agonist concentration of 1 μg/ml. DOTAP alone was diluted 10 fold in incomplete RPMI media. NCEs were added in a concentration range of 30 μM to 1 nM in respective wells of assay plate, assay medium containing 0.3% DMSO were added to control wells. 0.2 million splenocytes were added to all the wells and incubated at 37° C. in 5% CO2 incubator for 30 minutes. 1 μg/ml of respective agonist was added to all the wells except those were assigned as negative controls and mixed thoroughly. DOTAP was added to negative control wells and incubated overnight at 37° C./5% CO2. The plate was centrifuged at 450×g for 5 minutes at room temperature and the supernatant was collected. ELISA was performed as per manufacturer's protocol. S/B Ratio, % Activity and % Inhibition was calculated using MS Excel. IC50 and inhibition curve was generated using Graph Pad Prism.

[1] abbreviates: IL-6 release, read-out: mTLR7 inhibitory activity (% at 1 μM), IL-6.
The mark [2] stands for this setting: TNF-α release, read-out: mTLR7 inhibitory activity (% at 1 μM), TNF-α.

Structures are written as SMILES. Where two headings read alike, the source gives them in different places.

`Cc1cc2c(cc(CN3CCOCC3)n2C)c(-c2ccc(N3CCN(C(C)C)CC3)cc2)n1` [Example A35, 4-[[4-[4-(4-isopropylpiperazin-1-yl]phenyl]-1,6-dimethyl-pyrrolo[3,2-c]pyridin-2-yl]methyl] morpholine]: the inhibition at 1 µM came to 100% under setting [1] and 100% under setting [2].

With `Cc1nc(-c2ccc(N3CCN(C(C)C)CC3)cc2)c2cc(CN3CCOCC3)[nH]c2c1C` [Example A36, 4-[[4-[4-(4-isopropylpiperazin-1-yl)phenyl]-6,7-dimethyl-1H-pyrrolo[3,2-c]pyridin-2-yl]methyl] morpholine], the inhibition at 1 µM was found to be 100% under setting [1] and 99% under setting [2]. In the case of `Cc1nc(-c2ccc(N3CCN(C)CC3)cc2)c2cc(CN3CCOCC3)[nH]c2c1C` [Example A37, 4-[[6,7-dimethyl-4-[4-(4-methylpiperazin-1-yl)phenyl]-1H-pyrrolo[3,2-c]pyridin-2-yl]methyl] morpholine], the inhibition at 1 µM under setting [2] amounted to 100%. `CCN1CCN(c2ccc(-c3nc(C)c(C)c4[nH]c(CN5CCOCC5)cc34)cc2)CC1` [Example A38, 4-[[4-[4-(4-ethylpiperazin-1-yl)phenyl]-6,7-dimethyl-1H-pyrrolo[3,2-c]pyridin-2-yl]methyl] morpholine]: the inhibition at 1 µM by setting is: under setting [1], 100%; under setting [2], 100%. Take `Cc1nc(-c2ccc(N3CCN(C(C)C)CC3)cc2)c2cc(CN3CCCCC3)[nH]c2c1C` [Example A39, 4-[4-(4-isopropylpiperazin-1-yl)phenyl]-6,7-dimethyl-2-(1-piperidylmethyl)-1H-pyrrolo[3,2-c]pyridine]: the inhibition at 1 µM under setting [2] stood at 100%. The same measure, in the same setting: in the case of `Cc1nc(-c2ccc(N3CCN(C(C)C)CC3)cc2)c2cc(CN3CCCC3)[nH]c2c1C` [Example A40, 4-[4-(4-isopropylpiperazin-1-yl)phenyl]-6,7-dimethyl 2-(pyrrolidin-1-ylmethyl)-1H-pyrrolo[3,2-c)pyridine] it was 100%. On to `c1cc2[nH]c(CN3CCOCC3)cc2c(-c2ccc(N3CCNCC3)cc2)n1` [Example A42, 4-[[4-(4-(piperazin-1-yl)phenyl)-1H-pyrrolo[3,2-c]pyridin-2-yl]methyl] morpholine], for which the inhibition at 1 µM by setting is: under setting [1], 34%; under setting [2], 9%. The corresponding values for `c1cc2[nH]c(CN3CCOCC3)cc2c(-c2ccc(OC3CCNCC3)cc2)n1` [Example A49, 4-[[4-[4-(4-piperidyloxy)phenyl]-1H-pyrrolo[3,2-c]pyridin-2-yl]methyl]morpholine] are 2% and 3%.

As to `Cc1cc2[nH]c(CN3CCOCC3)cc2c(-c2ccc(C3CCN(C(C)C)CC3)cc2)n1` [Example A51, 4-[[4-[4-(1-isopropyl-4-piperidyl)phenyl]-6-methyl-1H-pyrrolo[3,2-c]pyridin-2-yl]methyl]morpholine], the inhibition at 1 µM under setting [1] amounted to 100% and the inhibition at 1 µM under setting [2] was found to be 96%. As for `CC(C)N1CC=C(c2ccc(-c3nccc4[nH]c(CN5CCOCC5)cc34)cn2)CC1` [Example A52, 4-[[4-[6-(1-isopropyl-3,6-dihydro-2H-pyridin-4-yl)-3-pyridyl]-1H-pyrrolo[3,2-c]pyridin-2-yl]methyl]morpholine], the inhibition at 1 µM under setting [1] was 71% and the inhibition at 1 µM under setting [2] came out at 10%. Take `CC(C)N1CCN(c2ccc(-c3nccc4[nH]c(CN5CCOCC5)cc34)cn2)CC1` [Example A53, 4-[[4-[6-(4-isopropylpiperazin-1-yl)-3-pyridyl]-1H-pyrrolo[3,2-c]pyridin-2-yl]methyl]morpholine]: the inhibition at 1 µM under setting [1] was determined as 100% and the inhibition at 1 µM under setting [2] worked out at 83%.

In the case of `CC(C)N1CCC(n2cc(-c3nccc4[nH]c(CN5CCOCC5)cc34)cn2)CC1` [Example A54, 4-[[4-[1-(1-isopropyl-4-piperidyl)pyrazol-4-yl]-1H-pyrrolo[3,2-c]pyridin-2-yl]methyl]morpholine], the inhibition at 1 µM under setting [2] stood at 0%.

The record behind these values is patent US9643967B2, “Pyrrolo[3,2-c]pyridine derivatives as TLR inhibitors” (TAKEDA PHARMACEUTICAL COMPANY LIMITED, priority 2013, dated 2017).
